The values that follow are results of earlier work, collected in paper PMC6719874 (PLoS ONE, 2019).

Data set [1] deals with S620T hERG.
Data set [2] deals with L-type calcium channels. Details: method as in PMID 17125805, PMID 19887376.
In data set [3] the test system is tumors / human xenografts.
Data set [4] deals with F656A hERG (Homo sapiens, UniProt Q12809, F656A). As to conditions: F656A ref 87.
In data set [5] the target is T1, Y652A hERG (Homo sapiens, UniProt Q12809, Y652A).
T1 construct: host or cells: Xenopus laevis oocytes injected with cRNA
T1 sequence (Q12809 whole entry Y652A): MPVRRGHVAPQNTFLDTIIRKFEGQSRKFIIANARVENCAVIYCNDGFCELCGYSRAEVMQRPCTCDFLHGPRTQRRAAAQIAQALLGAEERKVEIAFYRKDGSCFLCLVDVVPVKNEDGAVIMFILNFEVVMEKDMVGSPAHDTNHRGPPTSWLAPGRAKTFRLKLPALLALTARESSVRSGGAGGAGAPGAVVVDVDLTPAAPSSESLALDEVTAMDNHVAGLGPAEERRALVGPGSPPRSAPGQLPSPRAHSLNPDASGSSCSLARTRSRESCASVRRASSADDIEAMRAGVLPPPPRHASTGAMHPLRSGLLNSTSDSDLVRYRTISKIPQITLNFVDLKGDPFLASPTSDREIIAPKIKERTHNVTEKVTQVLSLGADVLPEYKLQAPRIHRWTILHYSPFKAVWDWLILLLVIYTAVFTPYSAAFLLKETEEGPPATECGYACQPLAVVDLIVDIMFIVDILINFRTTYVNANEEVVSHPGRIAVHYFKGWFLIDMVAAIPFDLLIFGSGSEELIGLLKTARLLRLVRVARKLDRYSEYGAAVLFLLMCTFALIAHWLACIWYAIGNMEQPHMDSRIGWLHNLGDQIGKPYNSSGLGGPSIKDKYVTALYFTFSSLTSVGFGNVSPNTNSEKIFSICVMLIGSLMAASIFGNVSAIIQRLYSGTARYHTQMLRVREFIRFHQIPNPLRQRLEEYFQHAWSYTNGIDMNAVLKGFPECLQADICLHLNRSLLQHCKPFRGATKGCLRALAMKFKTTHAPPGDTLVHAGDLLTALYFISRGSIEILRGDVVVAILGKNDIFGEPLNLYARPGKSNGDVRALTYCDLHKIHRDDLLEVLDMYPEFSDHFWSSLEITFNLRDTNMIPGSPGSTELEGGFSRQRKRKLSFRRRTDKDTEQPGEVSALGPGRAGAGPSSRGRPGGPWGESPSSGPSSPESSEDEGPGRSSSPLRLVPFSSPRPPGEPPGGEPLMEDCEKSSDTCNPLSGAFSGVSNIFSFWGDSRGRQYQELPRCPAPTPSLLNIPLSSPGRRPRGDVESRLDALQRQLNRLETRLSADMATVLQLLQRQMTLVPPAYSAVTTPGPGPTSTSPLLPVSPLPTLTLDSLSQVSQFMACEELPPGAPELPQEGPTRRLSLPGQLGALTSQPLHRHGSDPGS
Conditions: Y652A ref 87.

SMILES strings stand for the structures. Entries after “also recorded” stand apart in the source; their conditions may differ.

Chain of F656A hERG (Q12809 whole entry F656A): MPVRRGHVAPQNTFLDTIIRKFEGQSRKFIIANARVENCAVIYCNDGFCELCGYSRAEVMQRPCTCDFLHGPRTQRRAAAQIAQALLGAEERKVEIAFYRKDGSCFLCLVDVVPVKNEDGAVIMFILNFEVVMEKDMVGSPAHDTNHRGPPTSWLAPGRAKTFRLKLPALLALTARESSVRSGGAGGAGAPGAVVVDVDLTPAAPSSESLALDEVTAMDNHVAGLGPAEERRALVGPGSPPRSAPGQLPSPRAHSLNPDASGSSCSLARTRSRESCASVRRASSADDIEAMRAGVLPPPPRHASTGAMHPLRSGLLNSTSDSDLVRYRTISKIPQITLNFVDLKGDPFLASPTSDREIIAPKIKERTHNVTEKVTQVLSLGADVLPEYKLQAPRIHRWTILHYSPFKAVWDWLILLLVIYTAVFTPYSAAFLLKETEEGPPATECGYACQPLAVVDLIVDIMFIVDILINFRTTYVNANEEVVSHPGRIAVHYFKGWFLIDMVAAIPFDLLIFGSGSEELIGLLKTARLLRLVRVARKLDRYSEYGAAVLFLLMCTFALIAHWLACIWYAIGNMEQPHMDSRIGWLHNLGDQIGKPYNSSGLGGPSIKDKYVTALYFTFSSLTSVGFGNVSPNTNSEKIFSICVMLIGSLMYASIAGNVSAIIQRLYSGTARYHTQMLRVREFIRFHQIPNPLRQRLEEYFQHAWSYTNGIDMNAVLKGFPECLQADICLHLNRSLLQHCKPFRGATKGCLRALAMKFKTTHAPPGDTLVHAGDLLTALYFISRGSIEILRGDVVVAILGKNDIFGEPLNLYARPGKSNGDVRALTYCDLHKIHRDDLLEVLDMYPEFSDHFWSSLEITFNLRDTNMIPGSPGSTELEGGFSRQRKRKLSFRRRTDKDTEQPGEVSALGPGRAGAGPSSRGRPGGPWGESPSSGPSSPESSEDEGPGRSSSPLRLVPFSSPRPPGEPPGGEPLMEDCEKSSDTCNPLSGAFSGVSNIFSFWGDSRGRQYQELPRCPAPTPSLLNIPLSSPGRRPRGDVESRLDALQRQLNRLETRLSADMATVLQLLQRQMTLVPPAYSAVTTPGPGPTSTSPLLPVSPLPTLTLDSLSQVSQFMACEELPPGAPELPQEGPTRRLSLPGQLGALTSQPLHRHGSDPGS

Regarding `CCC(CO)Nc1nc(NCc2ccccc2)c2ncn(C(C)C)c2n1` (centres unmarked) [R-roscovitine, 2-(1-ethyl-2-hydroxyethylamino)-6-benzylamino-9-isopropylpurine], the “QT prolongation or other cardiac side effects” value (clinical trial, range of concentrations ref 18) is reported as “did not find QT prolongation or other cardiac side effects”. The tolerability result (phase II clinical trials) is reported as “well tolerated”. For the same compound, the “inhibition of S620T compared to WT” value in data set [1] is “similar; also recorded: not different from WT inhibition”. Further, the potency of inhibition in data set [2] is reported as ~ 25 μM. The tumor suppression entry in data set [3] (mice ref 75-77) is reported as “significant tumor suppression”. The “growth delay of human xenografts” value in data set [3] (mice ref 78) was “significant growth delay”.
For the compound `Cc1cccc(C)c1OCC(C)N` (centres unmarked) [mexiletine], the “fold change in IC50 in relation to WT” value in data set [4] is given as ~ 28 fold; in data set [5], ~ 12 fold.
